Values of other authors as cited in publication PMC6329039 (Molecular Pain, 2019).

Tested on: STAT3
Conditions: thermal shift assays ref 33

CN(CC(=O)N(Cc1ccc(C2CCCCC2)cc1)c1ccc(C(=O)O)c(O)c1)S(=O)(=O)c1c(F)c(F)c(F)c(F)c1F [BP-1–102]
binding to and degradation of STAT3: specifically bind to and induce the degradation of STAT3
